Assay results: patent US9056835B2, “LPA2 receptor-specific benzoic acid derivatives” (University of Tennessee Research Foundation, priority 2012, dated 2015)

Columns and labels:
Assay type in all cases: cell-based
GPR87 = GPR87 (Homo sapiens, UniProt Q9BY21); assay: LPA receptor-mediated Ca2+ mobilization assay, GPR87; details: for EC50: agonist, Ca2+ mobilization; for inhibition of GPR87 Ca2+ response: 10 μM, ~EC75 LPA 18:1; for GPR87 Imax (%): inhibition by 10 μM compound of ~EC75 LPA 18:1 Ca2+ response
Protocol: (§1) Similarity searches were performed separately using each fingerprint to quantitate similarity. Hits meeting the 80% similarity threshold from each search were ranked based on the Tanimoto coefficient measure of similarity to a target molecule NSC12404, and the top 75 unique hits from each fingerprint search were selected for further analysis. The 225 compounds selected for further analysis were clustered based on Tanimoto coefficients calculated using Molecular ACCess System-key fingerprints (MACCS keys) and evaluated using the diversity subset function implemented in MOE. This selected a diverse subset of 27 compounds for biological evaluation by choosing the middle compounds in each cluster. These 27 compounds were tested in Ca^2+ mobilization assays at a concentration of 10 μM using stable cell lines individually expressing LPA2 and also in vector-transfected control cells. Hits activating LPA2 were further tested using cells expressing the other established and putative LPA GPCRs. Experimental testing of the selected compounds identified the three new selective LPA2 agonists: GRI977143, H2L5547924, and H2L5828102. […] They arbitrarily selected GRI977143 for further characterization in cell-based assays.
(§2) J Biol Chem (2009) 284(25): 17304-17319). […] The cells were loaded with Fura-2-acetoxymethyl esther (Fura-2/AM) in Krebs buffer containing 0.01% pluronic acid for 30 min and rinsed with Krebs buffer before measuring Ca^2+ mobilization. The ratio of peak emissions at 510 nm after 2 min of ligand addition was determined for excitation wavelengths of 340 nm/380 nm. All samples were run in quadruplicate. […] The half maximally effective concentration (EC50), and inhibitory constant (Ki) values were calculated by fitting a sigmoid function to dose-response data points using KaleidaGraph software (version 4.1, Synergy Software; […]).
(§3) Mouse embryonic fibroblast (MEF) cells were isolated from E13.5 LPA1&2 double knockout (DKO) embryos. MEFs were transduced with empty vector or LPA2-containing lentiviruses and selected with 1.5 μg/ml puromycin. Cells were maintained in Dulbecco's modified Eagle medium (DMEM) supplemented with 10% (V/V) fetal bovine serum (FBS), 2 mM L-glutamine, 100 U/mL penicillin, and 100 μg/mL streptomycin. Serum-free medium contained 0.1% (W/V) BSA in DMEM. The rat intestinal epithelial cell line 6 (IEC-6) was obtained from the American Type Culture Collection (Rockville, Md.) at passage 13; passages 16-21 were used in all experiments. IEC-6 cells were maintained in a humidified 37° C. incubator in an atmosphere of 90% air and 10% CO2. Growth medium consisted of DMEM supplemented with 5% heat inactivated FBS, 10 μg/mL insulin, and 50 μg/mL gentamycin. The composition of the serum-starvation medium was the same as that of the full growth medium except that it contained no FBS. The McArdle rat hepatoma cell line (RH7777) stably expressing LPA2 receptors was a gift from Dr. Fumikazu Okajima (Gunma University, Maebashi, Japan). RH7777 cells stably expressing LPA1 or LPA3 receptors were generated in-house and had been characterized earlier. Wild type and LPA receptor (LPAR) stably transfected RH7777 cells were grown in DMEM supplemented with 10% FBS and 2 mM L-glutamine in the presence of 250 μg/ml G418. Chinese hamster ovary (CHO) cells stably expressing either vector or LPA4 receptor were a kind gift from Dr. Takao Shimizu (Tokyo University; Tokyo, Japan). Cells were cultured in Ham's F12 medium containing 10% FBS, 2 mM L-glutamine, and 350 μg/ml G418. Rat neuroblastoma cells (B103) were transduced with the lentivirus harboring wild type of FLAG-LPA5 and selected with puromycin to establish the stable cell lines. The stable cells were maintained in DMEM supplemented with 10% FBS and 0.4 μg/ml puromycin. GPR87- and P2Y10-expressing CHO cells and vector-transfected control cells were a gift from Dr. Norihisha Fujita (Ritsumeikan University; Shiga, Japan). […]

P2Y10 = P2Y10 (Homo sapiens, UniProt O00398); assay: LPA receptor-mediated Ca2+ mobilization assay, P2Y10; details: for EC50: agonist, Ca2+ mobilization; for inhibition of P2Y10 Ca2+ response: 10 μM, ~EC75 LPA 18:1; for P2Y10 Imax (%): inhibition by 10 μM compound of ~EC75 LPA 18:1 Ca2+ response
Protocol: as §1, §2, §3

LPA5 = molecular target: T1, LPA5 (Homo sapiens, UniProt Q9H1C0); assay: LPA receptor-mediated Ca2+ mobilization assay, LPA5; details: agonist
T1 construct: FLAG (N); expressed in transfected cells; host or cells: B103 rat neuroblastoma, lentiviral transduction, puromycin selection
Protocol: as §1, with “GPCRs.” for “GPCRs. Experimental testing of the selected compounds identified the three new selective LPA2 agonists: GRI977143, H2L5547924, and H2L5828102.”
as §2
Mouse embryonic fibroblast (MEF) cells were isolated from E13.5 LPA1&2 double knockout (DKO) embryos. MEFs were transduced with empty vector or LPA2-containing lentiviruses and selected with 1.5 μg/ml puromycin. Cells were maintained in Dulbecco's modified Eagle medium (DMEM) supplemented with 10% (V/V) fetal bovine serum (FBS), 2 mM L-glutamine, 100 U/mL penicillin, and 100 μg/mL streptomycin. Serum-free medium contained 0.1% (W/V) BSA in DMEM. The rat intestinal epithelial cell line 6 (IEC-6) was obtained from the American Type Culture Collection (Rockville, Md.) at passage 13; passages 16-21 were used in all experiments. IEC-6 cells were maintained in a humidified 37° C. incubator in an atmosphere of 90% air and 10% CO2. Growth medium consisted of DMEM supplemented with 5% heat inactivated FBS, 10 μg/mL insulin, and 50 μg/mL gentamycin. The composition of the serum-starvation medium was the same as that of the full growth medium except that it contained no FBS. […]

P2Y10, sequence (O00398 whole entry): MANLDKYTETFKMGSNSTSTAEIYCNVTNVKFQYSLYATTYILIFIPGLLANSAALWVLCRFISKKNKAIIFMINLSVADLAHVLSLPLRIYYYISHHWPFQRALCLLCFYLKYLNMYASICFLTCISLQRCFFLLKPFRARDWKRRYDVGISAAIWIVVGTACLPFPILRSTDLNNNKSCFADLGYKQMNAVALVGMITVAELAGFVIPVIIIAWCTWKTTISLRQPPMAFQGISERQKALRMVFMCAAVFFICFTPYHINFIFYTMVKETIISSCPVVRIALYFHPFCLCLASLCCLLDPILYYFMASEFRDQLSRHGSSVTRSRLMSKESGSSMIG
GPR87, sequence (Q9BY21 whole entry): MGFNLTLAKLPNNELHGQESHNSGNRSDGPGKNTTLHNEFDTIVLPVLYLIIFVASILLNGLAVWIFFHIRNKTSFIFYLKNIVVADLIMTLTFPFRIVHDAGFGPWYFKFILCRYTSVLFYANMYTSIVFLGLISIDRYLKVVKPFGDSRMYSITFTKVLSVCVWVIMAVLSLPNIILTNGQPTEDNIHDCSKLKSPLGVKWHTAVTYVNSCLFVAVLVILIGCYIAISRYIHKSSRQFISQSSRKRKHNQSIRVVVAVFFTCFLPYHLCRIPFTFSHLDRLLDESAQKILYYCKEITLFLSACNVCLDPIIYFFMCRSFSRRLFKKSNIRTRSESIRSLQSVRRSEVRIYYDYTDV
T1 sequence (Q9H1C0 whole entry, species assumed): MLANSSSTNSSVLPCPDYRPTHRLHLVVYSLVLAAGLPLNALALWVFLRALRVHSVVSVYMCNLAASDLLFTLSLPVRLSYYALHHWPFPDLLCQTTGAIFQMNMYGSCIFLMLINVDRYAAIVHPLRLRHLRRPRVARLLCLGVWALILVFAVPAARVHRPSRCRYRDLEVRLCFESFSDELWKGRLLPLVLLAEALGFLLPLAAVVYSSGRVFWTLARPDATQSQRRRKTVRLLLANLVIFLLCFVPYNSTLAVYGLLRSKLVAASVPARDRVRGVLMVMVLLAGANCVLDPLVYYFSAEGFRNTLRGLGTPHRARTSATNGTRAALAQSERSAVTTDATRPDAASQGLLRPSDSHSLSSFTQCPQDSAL

`O=C(O)c1ccccc1SCCCN1C(=O)c2cccc3cccc(c23)C1=O` [GRI977143] was tested, and the EC50 (GPR87) was > 10000 nM and the EC50 (P2Y10) was > 10000 nM.

Work on octadecenyl thiophosphate [OTP] yielded an EC50 (LPA5) of 3 nM and an EC50 (GPR87) of 3000 nM.

For `O=C(O)c1cc(Cl)c(Cl)cc1C(=O)Nc1ccc2c(c1)C(=O)c1ccccc1-2` [Compound H2L5547924], the EC50 (LPA5) was > 10000 nM, the “inhibition of GPR87 Ca2+ response” value (GPR87) was “partially inhibited” and the “GPR87 Imax (%)” value (GPR87) was 31%. The “inhibition of P2Y10 Ca2+ response” value (P2Y10) was “partially inhibited” and the “P2Y10 Imax (%)” value (P2Y10) was 34%.

`CCCCCCCC/C=C\CCCCCCCC(=O)OC[C@@H](O)COP(=O)(O)O` [LPA 18:1, Lysophosphatidic acid (18:1)] gave an EC50 (GPR87) of 49 nM and an EC50 (P2Y10) of 29 nM.

With `O=C(O)c1ccccc1C(=O)Nc1ccc2c(c1)C(=O)c1ccccc1-2` [NSC12404] the EC50 (LPA5) was > 10000 nM, the EC50 (GPR87) was > 10000 nM and the EC50 (P2Y10) was > 10000 nM.

In the case of `O=C(O)c1ccccc1C(=O)Nc1ccc2c(c1)C(=O)c1ccccc1C2=O` [Compound H2L5828102], the EC50 (LPA5) is reported as > 10000 nM, the “inhibition of GPR87 Ca2+ response” value (GPR87) is reported as “partially inhibited” and the “GPR87 Imax (%)” value (GPR87) is reported as 21%. For the same compound, the “inhibition of P2Y10 Ca2+ response” value (P2Y10) was “partially inhibited” and the “P2Y10 Imax (%)” value (P2Y10) was 39%.
